# Measurements reported in patent US12714747B2, “Cytotoxic lipid particles targeted to tumor-associated myeloid cells (TAMCS) and synergized with radiation therapy for treating glioblastoma” (priority 2019, dated 2026).
# What was measured:
# [1] = test system: TAMCs; assay: Annexin V viability assay of TAMCs; assay type: cell-based, C57BL/6 mice; details: 24 h
# Method: In vitro viability, gene expression, and PD-L1 expression of TAMCs post treatments. In vitro generated TAMCs (8×10^5 cells/well) were seeded in 24-well plate. After 24 h of culture, cells were incubated with αPD-L1-LNP/Dina, αPD-L1-LNP, or free Dina. At predetermined time intervals, the cells were collected and washed, followed by the annexin V assay (BioLegend). RNA isolation was processed using the RNEasy Plus Mini Kit (Qiagen), and total RNA was quantified by Nanodrop (Thermo Scientific). cDNA was synthesized using the iScript cDNA synthesis kit (Bio-Rad), and analyzed by qPCR analysis (Bio-Rad). Selected groups of cells were exposed to irradiation and collected 72 h post treatments for cell circle analysis using BrdU Flow Kit (Fisher) following the manufacturer's protocol.
# [2] = test system: PD-L1; assay: PD-L1 expression on TAMCs after IFNγ stimulation (RT-qPCR, flow cytometry); assay type: cell-based, C57BL/6 mice; details: as low as
# Method: To detect the PD-L1 expression on TAMCs post treatments, in vitro generated TAMCs (8×10^5 cells/well) were seeded in 24-well plate. After 24 h of culture, cells were subject to different treatments (Dina, αPD-L1/LNP, or αPD-L1-LNP/Dina) at a Dina concentration of 25 nM. Selected groups of cells were exposed to IFNγ (PeproTech) stimulation at 10 ng/ml for 24 h. Cells were collected and washed, followed by qPCR analysis or antibody staining for flow cytometry. The effect of irradiation on PD-L1 expression on TAMCs was similarly assessed 72 h post irradiation.
# [3] = test system: glioma-associated immune cells (TAMC, microglia, TIL); assay: Ex vivo TAMC elimination assay; assay type: cell-based, mice; details: 0, 25, 50 nM Dina, 72 h
# Method: TAMC targeting and elimination in ex vivo mice and human glioma models. Cell suspension collected from mouse or human samples was plated into 96 well U bottom plate. Cells were pre-blocked with Ultra-LEAF purified anti-mouse CD16/32 antibody or Human TruStain FcX (BioLegend) for 10 min at 4° C., followed by incubation with fluorescence labeled LNPs (0.15 mg lipids/ml) for 1 h at 37° C. in 5% CO2 humidified atmosphere. After gently washed with ice-cold PBS thrice, the cells were collected for staining with viability dye and antibodies. The cellular uptake was analyzed by flow cytometry. The ex vivo TAMC elimination assay was performed using cell suspension collected from mouse glioma samples. Cells were plated into 96 well U bottom plate in 50% complete RPMI and 50% conditioned media collected from GL261 glioma cell culture as aforementioned. Cells were subject to the treatment of αPD-L1/LNP/Dina or free Dina at a Dina concentration of 0, 25, and 50 nM for 72 h, and analyzed by flow cytometry.
smiles,measurement,setting,value
"CCc1cnn2c(NCc3ccc[n+]([O-])c3)cc(N3CCCC[C@H]3CCO)nc12 [Dina, Dinaciclib]",cytotoxicity / viability of TAMCs,[1],comparable cytotoxicity
same,dose attenuating PD-L1 expression on TAMCs,[2],25 nM
same,off-target toxicity to tumor-infiltrating lymphocytes / immune cell populations,[3],severe off-target cytotoxicity
